According to US20230210834A1, “RNA METHYLTRANSFERASE INHIBITOR, SCREENING METHOD THEREFOR, ANTI-CANCER AGENT EFFICACY ASSESSMENT MARKER, AND KIT FOR EFFECTIVELY PREDICTING FTSJ1 INHIBITOR” (National University Corporation Okayama University, priority 2019, published 2023):
Read-outs that look alike come from different tables or passages of the source.

How the values were obtained:
[1] = tested on: YAP/TAZ; assay: Screening: YAP/TAZ activity reporter (8xGTIIC plasmid) assay in NUGC3 cells (luminescence % of DMSO); assay type: cell-based, human
Method: (§1) Human gastric cancer cell line NUGC3 was cultured in a DMEM medium (high glucose with L-glutamine and phenol red, produced by FUJIFILM Wako Pure Chemical Corporation) containing 10% fetal bovine serum (produced by Thermo Fisher Scientific Inc.) and penicillin-streptomycin (produced by FUJIFILM Wako Pure Chemical Corporation) (this medium is simply referred to below as “DMEM+10% FBS+1×P/S”). Then, the NUGC3 cells were seeded in a 60-mm culture dish (produced by BioLite) so that the cells were 80% confluent after 24 hours. Subsequently, 5 μg of a reporter plasmid and 15 μL of a lipofection reagent (transIT-LT1, produced by Mirus Bio LLC) were mixed in 500 μL of Opti-MEM medium (produced by Thermo Fisher Scientific, Inc.) to form a complex, which was added to the medium in which the NUGC3 cells were cultured in the 60-mm culture dish. For use as the reporter plasmid, 5 μg of a polyglutamine luciferase reporter was introduced (in the polyglutamine luciferase reporter, a Renilla luciferase expressed in the IRES was located as an internal standard downstream of the sequence of a firefly luciferase sequence to which polyglutamine was added). Alternatively, a YAP/TAZ activity reporter was used by simultaneously introducing 3 μg of 8×GTIIC plasmid and 2 μg of a Renilla luciferase reporter as an internal standard. After another 24 hours, the cells were exfoliated with a 0.05 w/v % trypsin-0.53 mmol/l EDTA-4Na solution (produced by FUJIFILM Wako Pure Chemical Corporation), and then seeded in a 96-well plate (produced by BioLite) so that the cells were 80% confluent after 24 hours. Twenty-four hours after seeding in the 96-well plate, the medium in each well was replaced with 100 μL of a medium (DMEM+10% FBS+an antibiotic) containing 10 μM or 5 μM of a compound for evaluation. After another 24 hours, the medium containing the compound was removed, and the 96-well plate was transferred on ice. Each well was washed with 100 μL of phosphate buffer (PBS, produced by FUJIFILM Wako Pure Chemical Corporation). Thereafter, 20 μL of Passive Lysis Buffer (1×) contained in a Dual-Luciferase Reporter Assay System (produced by Promega Corporation) was added. The plate was then gently shaken for 15 minutes at room temperature to lyse the cells. After confirming that the cells were lysed, 10 μL of the lysate was transferred from each well to each corresponding well of a white 96-well plate (produced by Greiner Bio-one). To each well of the white 96-well plate was added 100 μL of a mixture of a Luciferase Assay Buffer II and Luciferase Assay Substrate contained in the Dual-Luciferase Reporter Assay System (produced by Promega Corporation), whereby the luminescence of the firefly luciferase was induced, and the luminescence intensity was detected with a microluminometer (produced by Berthold Japan K.K.). Subsequently, 100 μL of a mixture of Stop & Glo Buffer and Stop & Glo Substrate contained in the Dual-Luciferase Reporter Assay System (produced by Promega Corporation) was added, whereby the luminescence of firefly luciferase was quenched while the luminescence of Renilla luciferase was induced, and the luminescence intensity was detected with a microluminometer (produced by Berthold Japan K.K.) in a manner similar to the above. The ratio of the luminescence intensity of the firefly luciferase and the luminescence intensity of the Renilla luciferase was calculated, and the luminescence intensity (%) of the wells containing each compound was calculated with the luminescence intensity of the well containing DMSO (dimethyl sulfoxide, used as a solvent for the compound liquids) taken as 100%. […] Unless otherwise specified, the measured values in the table represent the results obtained by evaluation with the addition of 10 μM of each compound for evaluation.

[2] = tested on: polyglutamine luciferase reporter; assay: Screening: polyglutamine luciferase reporter assay in NUGC3 cells (luminescence % of DMSO); assay type: cell-based, human
Method: as §1

[3] = YAP/TAZ activity reporter (8×GTIIC), NUGC3 cells, luminescence relative to DMSO, concentration not given
[4] = polyglutamine luciferase reporter, NUGC3 cells, luminescence relative to DMSO, concentration not given

Structure (SMILES)	8×GTIIC [1, 3] [%]	Polyglutamine [2, 4] [%]	8×GTIIC [1] [%]	Polyglutamine [2] [%]
CC(C)c1cc(C(C)C)c(S(=O)(=O)CCc2ccccc2)c(C(C)C)c1 [PVZF2006]	58.43	41.3	–	–
CC(C)c1cc(C(C)C)c(S(=O)(=O)NCC2CCCNC2)c(C(C)C)c1 (stereo not drawn) [PVZF2008]	70.12	64.94	–	–
O=S(=O)(CC1CCCC1)c1ccc2ccccc2c1 [PVZF2010]	24.49	33.13	–	–
CCCCCCS(=O)(=O)c1ccc2ccccc2c1 [PVZF2011]	36.2	28.85	–	–
O=S(=O)(CC1CCCCC1)c1ccc2ccccc2c1 [PVZF2012]	34.08	33.76	–	–
O=S(=O)(CCc1ccccc1)c1ccc2ccccc2c1 [PVZF2014]	59.08	40.32	–	–
O=S(=O)(CCC1CCCCC1)c1ccc2ccccc2c1 [PVZF2015]	51.25	51.29	–	–
O=S(=O)(CCCC1CCCCC1)c1ccc2ccccc2c1 [PVZF2017]	58.91	66.66	–	–
CC1(C)CC(CS(=O)(=O)c2ccc3ccccc3c2)CC(C)(C)C1 [PVZF2018]	73.29	61.19	–	–
CC(C)(C)c1ccc(S(=O)(=O)CC2CCCC2)cc1 [PVZF2019]	36.82	31.45	–	–
CCCCCCS(=O)(=O)c1ccc(C(C)(C)C)cc1 [PVZF2020]	45.04	36.76	–	–
CC(C)(C)c1ccc(S(=O)(=O)CC2CCCCC2)cc1 [PVZF2021]	44.55	32.95	–	–
CC(C)(C)c1ccc(S(=O)(=O)CCc2ccccc2)cc1 [PVZF2023]	66.96	58.32	–	–
CC(C)(C)c1ccc(S(=O)(=O)CCC2CCCCC2)cc1 [PVZF2024]	55.45	63.4	–	–
CC(C)(C)c1ccc(S(=O)(=O)CCCC2CCCCC2)cc1 [PVZF2026]	34.4	31.89	–	–
O=S(=O)(CC1CCCC1)c1ccc(-c2ccccc2)cc1 [PVZF2028]	40.24	42.32	–	–
CCCCCCS(=O)(=O)c1ccc(-c2ccccc2)cc1 [PVZF2029]	49.28	49.5	–	–
O=S(=O)(CC1CCCCC1)c1ccc(-c2ccccc2)cc1 [PVZF2030]	49.29	50.36	–	–
O=S(=O)(CCc1ccccc1)c1ccc(-c2ccccc2)cc1 [PVZF2032]	76.99	73.08	–	–
O=S(=O)(CCC1CCCCC1)c1ccc(-c2ccccc2)cc1 [PVZF2033]	69.36	67.7	–	–
O=S(=O)(NCCC1=CCCCC1)c1ccc(-c2ccccc2)cc1 [PVZF2035, N-(2-(cyclohexy-1-en-1-yl)ethyl)-[1,1′-biphenyl]-4-sulfonamide]	–	–	71.12	58.85
CC1(C)CC(CS(=O)(=O)c2ccc(-c3ccccc3)cc2)CC(C)(C)C1 [PVZF2036]	70.46	79.76	–	–
CCC(C)(C)c1ccc(S(=O)(=O)CC2CCCC2)cc1 [PVZF2037]	43.28	51.06	–	–
CCCCCCS(=O)(=O)c1ccc(C(C)(C)CC)cc1 [PVZF2038]	56.84	58.2	–	–
CCC(C)(C)c1ccc(S(=O)(=O)CC2CCCCC2)cc1 [PVZF2039]	60	53.6	–	–
CCC(C)(C)c1ccc(S(=O)(=O)CCc2ccccc2)cc1 [PVZF2041]	79.61	78.87	–	–
CCC(C)(C)c1ccc(S(=O)(=O)CCC2CCCCC2)cc1 [PVZF2042]	35.98	34.02	–	–

Structure (SMILES)	8×GTIIC [1, 3] [%]	Polyglutamine [2, 4] [%]	8×GTIIC [1] [%]	Polyglutamine [2] [%]
CCC(C)(C)c1ccc(S(=O)(=O)CCCC2=CCCCC2)cc1 [PVZF2044]	55.05	45.42	–	–
CC1(C)CC(CS(=O)(=O)c2ccc(C(C)(C)C)cc2)CC(C)(C)S1 [PVZF2045]	66.26	65.16	–	–
CCCCCCS(=O)(=O)c1ccccc1 [PVZF2047]	63.56	48.95	–	–
O=S(=O)(CC1CCCCC1)c1ccccc1 [PVZF2048]	69.86	73.33	–	–
O=S(=O)(CCc1ccccc1)c1ccccc1 [PVZF2050]	39.57	49.43	–	–
O=S(=O)(CCC1CCCCC1)c1ccccc1 [PVZF2051]	35.1	38.06	–	–
O=S(=O)(CC1CCCC1)c1ccc(C2CCCCC2)cc1 [PVZF2064]	75.47	64	–	–
O=S(=O)(CCc1ccccc1)c1ccc(C2CCCCC2)cc1 [PVZF2068]	74.24	53.21	–	–
O=S(=O)(CCCC1CCCCC1)c1ccc(C2CCCCC2)cc1 [PVZF2071]	70.27	63.89	–	–
CC1(C)CC(CS(=O)(=O)c2ccc(C3CCCCC3)cc2)CC(C)(C)S1 [PVZF2072]	83.58	80.1	–	–
CC(C)c1cc(C(C)C)c(S(=O)(=O)CC(c2ccccc2)c2ccc(-c3ccccc3)cc2)c(C(C)C)c1 (stereo not drawn) [PVZF2083]	108.4	69	–	–
CC(=O)C1CC(c2cccc(C)c2)CC1c1ccccc1 (stereo not drawn) [PZ163]	103.2	71.16	–	–
CCc1ccc(C2=CC(C(C)=O)C(c3ccc(CC)c(C)c3)C2)cc1 (stereo not drawn) [PZ173]	160.5	67.61	–	–
CC(=O)C1CC(c2ccc(C)cc2)CC1c1ccc2ccccc2c1 (stereo not drawn) [PZ177]	71.59	43.89	–	–
CC(=O)C1C=C(c2ccc(C)cc2)CC1c1ccc2ccccc2c1 (stereo not drawn) [PZ178]	119.3	60.25	–	–
CC(=O)C1C=C(c2ccccc2)CC1c1ccc2ccccc2c1 (stereo not drawn) [PZ179]	95.65	66.51	–	–
Cc1ccc(S(=O)(=O)CC2CC(C)(C)CC(C)(C)C2)cc1C(F)(F)F [SA001]	74.98	83.34	–	–
Cc1cc(C)c(S(=O)(=O)CC2CC(C)(C)CC(C)(C)C2)cc1C [SA002]	47.03	49.58	–	–
CCCc1cc(C)c(C(C)C)cc1S(=O)(=O)CC1CC(C)(C)CC(C)(C)C1 [SA003]	46.84	37.79	–	–
CCc1cc(C)c(S(=O)(=O)CC2CC(C)(C)CC(C)(C)C2)cc1C(C)C [SA006]	40.21	37.54	–	–
Cc1cc(C)c(S(=O)(=O)CC2CC(C)(C)CC(C)(C)C2)cc1C [SA007]	56.96	55.29	–	–
Cc1cc(C)c(S(=O)(=O)CC2CC(C)(C)CC(C)(C)C2)cc1C [SA008]	57.06	51.03	–	–
Cc1cc(C)c(S(=O)(=O)CC2CC(C)(C)CC(C)(C)C2)cc1C [SA009]	80.29	73.02	–	–
CCc1cc(C)c(S(=O)(=O)CC2CC(C)(C)CC(C)(C)C2)cc1C [SA010]	64.43	59.61	–	–
CCCc1cc(S(=O)(=O)CC2CC(C)(C)CC(C)(C)C2)ccc1C [SA011]	67.54	60.35	–	–
O=C(CCCCc1ccccc1)C1CCC(CS(=O)(=O)c2ccccc2)CC1 (stereo not drawn) [SA012]	91.92	86.48	–	–
CC(C)(C)c1cccc(S(=O)(=O)C2CCC(CS(=O)(=O)c3ccccc3)CC2)c1 (stereo not drawn) [SA016]	53.02	43.01	–	–
